Test results taken from ChEMBL document CHEMBL1201862, “PubChem BioAssay data set” (2004).
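Step 1: Grow cells in 96-well plates. Step 2: Expose to compound for 48 hours at 5 concentrations. Step 3: Interpolate endpoints linearly; if unreached, use highest concentration. GI50: concentration for 50% inhibition of growth.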 The source made the active and inactive calls. Rule as the data show it: active = GI50 up to about 1.1 µM and inactive = higher.

Columns and labels:
Experiment in all cases: DTP human tumour cell line panel, 48 h
NCI/ADR-RES = test system: NCI/ADR-RES
SR = test system: SR
T47D = test system: T47D
MCF7 = test system: MCF7
SF-268 = test system: SF-268
SN12C = test system: SN12C
HT-29 = test system: HT-29
OVCAR-3 = test system: OVCAR-3
RXF 393 = test system: RXF 393
RPMI-8226 = test system: RPMI-8226
Malme-3M = test system: Malme-3M
NCI-H23 = test system: NCI-H23
EKVX = test system: EKVX
MOLT-4 = test system: MOLT-4
MDA-MB-231 = test system: MDA-MB-231
OVCAR-8 = test system: OVCAR-8
OVCAR-5 = test system: OVCAR-5

Row | SMILES | GI50 (NCI/ADR-RES) | GI50 (SR) | GI50 (T47D) | GI50 (MCF7) | GI50 (SF-268) | GI50 (SN12C) | GI50 (HT-29) | GI50 (OVCAR-3) | GI50 (RXF 393) | GI50 (RPMI-8226) | GI50 (Malme-3M) | GI50 (NCI-H23) | GI50 (EKVX) | GI50 (MOLT-4) | GI50 (MDA-MB-231) | GI50 (OVCAR-8) | GI50 (OVCAR-5)
1 | O=c1[nH]nc(-c2ccccc2)c2[nH]c3c4ccccc4ccc3c12 | 0.379 µM (active) | 0.251 µM (active) | 5.4 µM (inactive) | 0.331 µM (active) | 1.33 µM (inactive) | 3.87 µM (inactive) | 0.459 µM (active) | 0.424 µM (active) | 1.58 µM (inactive) | 0.746 µM (active) | 4.83 µM (inactive) | 2.15 µM (inactive) | 3.44 µM (inactive) | 1.64 µM (inactive) |  |  | 
2 | O=C(Nc1ccccn1)/C(=C\C(=O)c1ccc(Cl)cc1)Nc1ccccc1 |  | > 10 µM (inactive) | > 10 µM (inactive) | > 10 µM (inactive) | > 10 µM (inactive) | > 10 µM (inactive) | > 10 µM (inactive) |  | > 10 µM (inactive) | > 10 µM (inactive) | > 10 µM (inactive) | > 10 µM (inactive) | > 10 µM (inactive) | > 10 µM (inactive) | > 10 µM (inactive) | > 10 µM (inactive) | 
3 | CC1(C)/C(=N\Nc2ccc([N+](=O)[O-])cc2[N+](=O)[O-])C2CCC1C2 (stereo unspecified) | > 100 µM (inactive) | > 100 µM (inactive) | > 100 µM (inactive) | > 100 µM (inactive) | > 100 µM (inactive) | > 100 µM (inactive) | > 100 µM (inactive) | > 100 µM (inactive) |  | > 100 µM (inactive) | > 100 µM (inactive) | > 100 µM (inactive) | > 100 µM (inactive) | > 100 µM (inactive) |  | > 100 µM (inactive) | > 100 µM (inactive)
4 | CC(C)[Si](OC1=C(C(=O)N(C)c2ccccc2Cl)CCCCC1)(C(C)C)C(C)C | > 100 µM (inactive) |  | > 100 µM (inactive) |  | > 100 µM (inactive) | > 100 µM (inactive) | > 100 µM (inactive) | > 100 µM (inactive) | > 100 µM (inactive) | > 100 µM (inactive) | > 100 µM (inactive) | > 100 µM (inactive) | > 100 µM (inactive) | > 100 µM (inactive) | > 100 µM (inactive) | > 100 µM (inactive) | > 100 µM (inactive)
5 | C=CC[C@]1(/C=N/O)CN(S(=O)(=O)CC[Si](C)(C)C)C[C@H]2CC=CC[C@H]21 | 39.8 µM (inactive) |  | 26.4 µM (inactive) | 17.3 µM (inactive) | 32.9 µM (inactive) | 16.2 µM (inactive) | 16.2 µM (inactive) |  | 13.6 µM (inactive) | 13.4 µM (inactive) | 20.5 µM (inactive) | 27.7 µM (inactive) | 25.7 µM (inactive) | 16.4 µM (inactive) | 24.4 µM (inactive) | 24 µM (inactive) | 21.7 µM (inactive)
6 | CN1CCC2(CC1)SSC1(CCN(C)CC1)S2 | > 100 µM (inactive) | > 100 µM (inactive) |  |  |  | > 100 µM (inactive) | > 100 µM (inactive) |  |  | > 100 µM (inactive) |  | > 100 µM (inactive) |  | > 100 µM (inactive) | > 100 µM (inactive) | > 100 µM (inactive) | > 100 µM (inactive)
7 | CCOc1c2c(cc3c1C(=O)c1c(OC)cccc1C3=O)C=C(OC)CC2 | 23.2 µM (inactive) | 7.45 µM (inactive) |  | 24.4 µM (inactive) | > 25 µM (inactive) | > 25 µM (inactive) | 10.3 µM (inactive) | > 25 µM (inactive) | 12 µM (inactive) | 7.24 µM (inactive) | 13.6 µM (inactive) | > 25 µM (inactive) | > 25 µM (inactive) | 8.71 µM (inactive) | > 25 µM (inactive) | > 25 µM (inactive) | > 25 µM (inactive)
8 | O=c1cc(NNc2ccc(F)cc2)[nH]c(=O)[nH]1 | 28.2 µM (inactive) | 35.1 µM (inactive) | 27 µM (inactive) |  | 20 µM (inactive) | 18.2 µM (inactive) | 16.9 µM (inactive) | 16.4 µM (inactive) | 15.5 µM (inactive) | 11 µM (inactive) | 19.8 µM (inactive) | 29.4 µM (inactive) | 18.3 µM (inactive) | 19.8 µM (inactive) | 17.1 µM (inactive) | 23.1 µM (inactive) | 19.2 µM (inactive)
9 | CCOC(=O)/C(C#N)=C/c1ccc(SCc2ccco2)c([N+](=O)[O-])c1 | > 100 µM (inactive) | > 100 µM (inactive) |  | > 100 µM (inactive) | > 100 µM (inactive) | > 100 µM (inactive) | > 100 µM (inactive) | > 100 µM (inactive) | > 100 µM (inactive) | > 100 µM (inactive) | > 100 µM (inactive) | > 100 µM (inactive) | > 100 µM (inactive) | > 100 µM (inactive) | > 100 µM (inactive) | > 100 µM (inactive) | > 100 µM (inactive)
